The values below come from publication PMC10694602, “Binding of perilipin 3 to membranes containing diacylglycerol is mediated by conserved residues within its PAT domain” (The Journal of Biological Chemistry, 2023).

In test [1] the target is T1, PLIN3 - Q22A S24A E86A I89G S93A (Homo sapiens, UniProt O60664, E86A/I89G/Q22A/S24A/S93A).
T1 construct: Plasmids containing human full-length PLIN3 or fragments thereof were obtained by PCR amplification; made in house; host or cells: Escherichia coli BL21 (DE3) or NiCo21 (DE3)
T1 sequence (O60664 1-434 Q22A/S24A/E86A/I89G/S93A): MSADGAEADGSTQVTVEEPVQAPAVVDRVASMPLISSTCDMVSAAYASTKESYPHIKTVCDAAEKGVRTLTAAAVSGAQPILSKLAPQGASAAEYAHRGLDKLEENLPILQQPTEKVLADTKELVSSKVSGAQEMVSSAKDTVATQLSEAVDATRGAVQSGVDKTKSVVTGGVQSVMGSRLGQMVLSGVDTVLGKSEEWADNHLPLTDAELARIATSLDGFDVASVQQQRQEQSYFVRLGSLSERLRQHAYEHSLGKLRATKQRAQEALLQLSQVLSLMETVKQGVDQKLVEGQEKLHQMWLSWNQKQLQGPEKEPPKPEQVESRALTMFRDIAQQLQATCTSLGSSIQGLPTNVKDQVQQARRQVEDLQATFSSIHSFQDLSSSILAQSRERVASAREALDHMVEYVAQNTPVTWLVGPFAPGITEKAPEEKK
The test is described as follows: MST binding to the PLIN3 quintuple mutant. To be noted: short chain lipid as free ligand; n.d.; Fig. S1. An excerpt: To validate this predicted mode of DAG binding by the PAT domain, we generated mutant versions of PLIN3 and assessed their impact on DAG binding by MST. First, we tested whether the simultaneous substitution of the five residues, Q22, S24, E86A, I89G, and S93A, would impact either binding of short chain DAG or that of liposomes containing low concentrations of DAG. […] To assess the impact of these residues in more detail, we first tested mutations in the two serine residues S24A and S93A. […] To confirm the importance of the glutamic acid residue at position 86 for binding of DAG, we also generated an E86A point mutant version.
Binding of purified PLIN3 protein and PLIN3 domains to liposomes, ALDs, or short chain lipids was determined by MST using a Monolith NT.115 system (Nanotemper Technologies). Proteins were labeled with a RED-tris-NTA His tag protein-labeling reagent following the manufacturer’s instructions (Nanotemper Technologies). Labeled proteins were added to a serial dilution of unlabeled lipids, liposomes, or ALDs, and the mixtures were loaded into MST standard capillaries to assess binding affinities. The dissociation constant was obtained by plotting fluorescence intensities of the protein–lipid complex against the concentrations of the unlabeled lipids, liposomes, or ALDs. […]

Test [2] deals with T2, PAT domain of PLIN3 (Homo sapiens, UniProt O60664).
T2 sequence (O60664 1-107 limits assumed): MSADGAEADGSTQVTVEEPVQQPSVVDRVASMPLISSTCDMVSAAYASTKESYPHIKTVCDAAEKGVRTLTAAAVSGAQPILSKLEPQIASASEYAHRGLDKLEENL
Put plainly: MST binding to the PAT domain of PLIN3. To be noted: short chain lipids as free ligands. The source says: (§1) To gain further insight into the binding of PLIN3 to DAG-containing membranes, we examined the contribution of each individual domain of PLIN3 towards lipid binding, that is, the N-terminal PAT domain, the central 11-mer repeat region, and the C-terminally located 4-helix bundle (Fig. 2A). Therefore, we expressed and purified proteins harboring individual domains of PLIN3 and first examined their binding of short-chain lipids.
(§2) Binding of purified PLIN3 protein and PLIN3 domains to liposomes, ALDs, or short chain lipids was determined by MST using a Monolith NT.115 system (Nanotemper Technologies). Proteins were labeled with a RED-tris-NTA His tag protein-labeling reagent following the manufacturer’s instructions (Nanotemper Technologies). Labeled proteins were added to a serial dilution of unlabeled lipids, liposomes, or ALDs, and the mixtures were loaded into MST standard capillaries to assess binding affinities. The dissociation constant was obtained by plotting fluorescence intensities of the protein–lipid complex against the concentrations of the unlabeled lipids, liposomes, or ALDs. Experiments were performed in triplicates and data were fitted using the KD Model of the MO.Affinity Analysis software (https://nanotempertech.com/, Nanotemper Technologies).

Test [3] deals with T3, 4-helix bundle of PLIN3 (Homo sapiens, UniProt O60664).
T3 sequence (O60664 245-434 limits assumed): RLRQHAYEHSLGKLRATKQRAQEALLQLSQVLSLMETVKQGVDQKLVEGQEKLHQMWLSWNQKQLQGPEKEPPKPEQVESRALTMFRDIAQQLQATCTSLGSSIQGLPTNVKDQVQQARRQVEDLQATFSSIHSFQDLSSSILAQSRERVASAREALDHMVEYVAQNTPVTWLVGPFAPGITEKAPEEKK
Put plainly: MST binding to the 4-helix bundle of PLIN3. The following applies: short chain lipids as free ligands; n.d. = not detected; Fig. 2B; read-out: KD 4-helix.
From the text: as §1, §2

Consider `CCCCCCCC(=O)OC[C@H](CO)OC(=O)CCCCCCC` [8:0 DAG, 1,2-dioctanoyl-sn-glycerol], for which the KD entry in test [1] was “failed to bind”. The “fold stronger binding than 8:0 PA” value in test [2] was found to be 36 fold. Moreover, the Kd (commonly the equilibrium constant for the complex coming apart) in test [2] (n.d. = not detected, Fig. 2B) was 0.39 µM; in test [3], 20.7 µM.
